Consider two molecules from patent US7223731B2, “Thrombospondin-1 type 1 repeat polypeptides” (Beth Israel Deaconess Medical Center, Inc., priority 2000, dated 2007).

Assay [1] concerns B16F10 tumors. The assay can be described thus: Histological examination of B16F10 tumors (anti-CD31, TUNEL, PCNA). The assay is classed as in vivo, C57BL/6 mice. To be noted: 1.0 mg/kg/day, twelfth treatment day; for decrease in number of proliferating tumor cells: PCNA positive cells; for increase in tumor cell apoptosis: TUNEL; for reduction in capillary density: anti-CD31. Here is the method: The tumor tissues were cut, fixed with neutral buffered formaldehyde, and embedded in paraffin according to standard histological procedures. Hematoxylin and eosin staining was employed for tissue morphology examination. Blood vessels were immunochemically stained by anti-CD31 antibody with a Vectastain ABC kit (Vector Laboratories, Burlingame, Calif.). Tumor cell apoptosis was detected by TUNEL assay (Abe, M. et al., Anal. Biochem, 216:276–84, 1994). The number of blood vessels was recorded by counting ten high-power fields. Tumor cell proliferation and the apoptotic index were estimated by the percentage of cells scored under a light microscope. A minimum of 1,000 cells was counted in each tumor sample. To better understand the effect of the recombinant protein treatment on tumor growth, we have determined the rate of proliferation, the apoptotic index and the capillary density for tumors in the saline control group, mice treated with the TSR2+RFK protein or mice treated with the TSR2 protein at an intermediate dose (1.0 mg/kg/day) where the largest effect of inclusion of the RFK sequence is observed. Tumors were removed and fixed on the twelfth treatment day. Capillaries were visualized with anti-CD31 antibody and apoptotic cells were identified by TUNEL. […] The number of proliferating cells was decreased by 35% by treatment with the TSR2+RFK protein (p<0.005), while treatment with the TSR2 protein reduced tumor cell proliferation by 7.8% (p<0.05) (FIG. 6C).

The test system of assay [2] is Human dermal microvessel endothelial cells (HDMEC). Kind of assay: In vitro endothelial cell migration assay (FGF-2 induced, transwell). To be noted: HDMEC migration in response to FGF-2. The assay is classed as cell-based. On the procedure:
Human dermal microvessel endothelial cells (HDMEC) were isolated by the procedure of Richard et al., Exp. Cell Res. 240:1–6 (1998). The cells were cultured in Vitrogen precoated dishes, and maintained in EBM (Clonetics Corp, San Diego, Calif.) containing 20% fetal bovine serum (FBS), 1 mg/ml hydrocortisone acetate, 5×10^−5 M dibutyryl-cAMP, 200 U/ml penicillin, 100 U/ml streptomycin, 250 mg/ml amphotericin and 2–5 ng/ml VEGF. Murine melanoma B16F10 and murine Lewis lung carcinoma cells were obtained from the ATCC, and were maintained in Dulbecco's Modified Eagle Media (DMEM) supplemented with 10% FBS, […] penicillin, 50 U/ml streptomycin, and 2 mM glutamine (supplemented DMEM). Mink lung epithelial cells (MLECs-Clone 32) that have been stably transfected with an 800 bp fragment of the plasminogen activator inhibitor-1 (PAI-1) promoter fused to the firefly luciferase reporter gene were kindly provided by Dr. Daniel Rifkin (Abe, M. et al., Anal. Biochem. 216:276–284, 1994). The transfected MLECs were maintained in supplemented DMEM.
Cells at passage 7–10 were serum-starved and maintained in EBM with 0.1% BSA (control media) for 20 hours before trypsinization to harvest the cells. Cells were washed in EBM twice and resuspended in control media at a concentration of 1×10^6 cells/ml. […] of cells were packed down and kept frozen. They were lysed and serially diluted by CyQuant reagent (Molecular Probe, Eugene, Oreg.) to be used for standard curve construction.
Transwell membrane (24-well polycarbonate membrane, […] from Corning Costar Corporation, Cambridge, Mass.) coated with Vitrogen (30 mg/ml, Invitrogen) on both sides was used for chemotactic migration experiments. Coated transwells were inverted, […] of cell suspension applied to the top of the membrane and covered by the bottom plate carefully so that the cell suspension stayed on top of the membrane. The cells were allowed to adhere to the coated membrane for two hours in an incubator at 37° C. with 5% CO2. After the adhesion incubation, the plates were re-inverted, the bottom wells were filled with 0.4 ml control media and the top wells were filled with 0.1 ml control media containing testing reagents. The plate was returned to the incubator for 3.5 hours for the cells to migrate. At the end of the incubation, the transwells were washed in PBS and the cells on the […] of the membrane (unmigrated cells) were wiped away with a cotton swab. The membranes were cut out by scalpel and placed into 96-well plates and frozen at −80° C. overnight. […] Fluorescence reading was done 16 hours later with a SpectraFluor plate reader with excitation at 485 nm and emission at […]. The number of cells migrated was then calculated based on the standard curve.

Assay [3] concerns TGFβ. Kind of assay: Assay for TGFβ activation (MLEC luciferase assay on B16F10 conditioned media). The format is cell-based, murine. To be noted: for level of the active form of TGFβ as % of the total TGFβ: 5 μg/ml protein added, media conditioned by B16F10 melanoma cells, control 6.3%; for activation of TGFβ (in words): culture supernatant from B16F10 cells. Here is the method: Human dermal microvessel endothelial cells (HDMEC) were isolated by the procedure of Richard et al., Exp. Cell Res. 240:1-6 (1998). The cells were cultured in Vitrogen precoated dishes, and maintained in EBM (Clonetics Corp, San Diego, Calif.) containing 20% fetal bovine serum (FBS), 1 mg/ml hydrocortisone acetate, 5×10^-5 M dibutyryl-cAMP, 200 U/ml penicillin, 100 U/ml streptomycin, 250 mg/ml amphotericin and 2-5 ng/ml VEGF. Murine melanoma B16F10 and murine Lewis lung carcinoma cells were obtained from the ATCC, and were maintained in Dulbecco's Modified Eagle Media (DMEM) supplemented with 10% FBS, […] penicillin, 50 U/ml streptomycin, and 2 mM glutamine (supplemented DMEM). Mink lung epithelial cells (MLECs-Clone 32) that have been stably transfected with an 800 bp fragment of the plasminogen activator inhibitor-1 (PAI-1) promoter fused to the firefly luciferase reporter gene were kindly provided by Dr. Daniel Rifkin (Abe, M. et al., Anal. Biochem. 216:276-284, 1994). The transfected MLECs were maintained in supplemented DMEM. B16F10 cells (2.5×10^5) were plated in a T25 flask and grown overnight in supplemented DMEM. The cells were rinsed once with 1.0 ml of serum-free DMEM and 2.5 ml of serum-free DMEM containing […] of the TSR, or […] recombinant protein were added. After an overnight incubation, conditioned media was collected and centrifuged at 12,000 rpm for 5 min to remove cellular debris. Undiluted media was used to determine the level of active TGFβ. The level of total TGFβ was determined by incubating the media at 80° C. for 10 min and diluting 1:5 in DMEM. One hundred microliters of conditioned media were added to wells of a 96-well plate containing 3×10^4 MLECs and the plates were incubated overnight. A standard curve was constructed by incubating 7.8 to 250 pg/ml of purified TGFβ with the […].) in DMEM. The media was removed and the cells were washed 3 times with cold PBS prior to the addition of […] of lysis buffer (PharMingen, San Diego, Calif.). Luciferase activity was measured using the Enhanced Luciferase Assay Kit PharMingen).

For “TSR2: recombinant protein that contains the second TSR of human TSP-1, amino acids 416–473, excludes DKRFK”, in assay [1], the “decrease in number of proliferating tumor cells” value is 7.8%, the “increase in tumor cell apoptosis” value came out at 1.9 fold and the “reduction in capillary density” value was 64%. Moreover, the “concentration maximally effective in inhibiting endothelial cell migration” value in assay [2] amounted to 10 ng/mL. In addition, in assay [3], the “level of the active form of TGFβ as % of the total TGFβ” value came to 4.8% and the “activation of TGFβ (in words)” value is on record as “does not”.

B1: TSR2+RFK: recombinant longer version of the second type 1 repeat of human TSP-1 including the RFK sequence, amino acids 411–473 (protein, listed as Homo sapiens)
chain: DKRFKQDGGWSHWSPWSSCSVTCGDGVITRIRLCNSPSPQMNGKPCEGEARETKACKKDACPI
Take B1: in assay [1], the “decrease in number of proliferating tumor cells” value was 35%, the “increase in tumor cell apoptosis” value stood at 4 fold and the “reduction in capillary density” value is recorded as 71%. Further, the “concentration maximally effective in inhibiting endothelial cell migration” value in assay [2] was 10 ng/mL. For the same molecule, in assay [3], the “level of the active form of TGFβ as % of the total TGFβ” value was determined as 30% and the “activation of TGFβ (in words)” value is “activates TGFβ”.
